Assay results from article PMC8356907 (Current analytical chemistry, 2021).
Blank lines part the entries; values can stand above or below the molecule they belong to. Square brackets hold non-standard residues; d marks the D form.

Key:
[1] = biological target: T1, recombinant human caspase 3 (Homo sapiens, UniProt P42574); details: cited from earlier work; for kcat: standard fluorogenic substrates; for Km: standard substrates
T1 sequence (P42574 29-175 limits assumed): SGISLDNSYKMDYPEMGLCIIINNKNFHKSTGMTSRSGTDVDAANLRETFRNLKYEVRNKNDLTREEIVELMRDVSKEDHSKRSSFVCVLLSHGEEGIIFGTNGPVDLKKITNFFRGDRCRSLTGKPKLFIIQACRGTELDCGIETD
T1 sequence (P42574 176-277 limits assumed): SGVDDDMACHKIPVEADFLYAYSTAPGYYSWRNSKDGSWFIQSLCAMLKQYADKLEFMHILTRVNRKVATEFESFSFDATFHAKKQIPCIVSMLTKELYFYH

[2] = biological target: human integrin αvβ3 purified protein (Homo sapiens, UniProt P05106+P06756); assay: Solid-phase RGD receptor-binding assay
[3] = system: A549 cells; assay: Live cell NIR fluorescence microscopy; assay type: cell-based, human; details: 100 μM inhibitor, paclitaxel-treated A549 cells, 4 h
[4] = biological target: human integrin αvβ3 purified protein (human, UniProt P06756 31-1048; P05106 27-788); assay: radioligand binding
[5] = biological target: T2, human integrin αvβ3 purified protein (human), P06756; assay: radioligand binding; details: remark: other sources report otherwise
T2 chain 1: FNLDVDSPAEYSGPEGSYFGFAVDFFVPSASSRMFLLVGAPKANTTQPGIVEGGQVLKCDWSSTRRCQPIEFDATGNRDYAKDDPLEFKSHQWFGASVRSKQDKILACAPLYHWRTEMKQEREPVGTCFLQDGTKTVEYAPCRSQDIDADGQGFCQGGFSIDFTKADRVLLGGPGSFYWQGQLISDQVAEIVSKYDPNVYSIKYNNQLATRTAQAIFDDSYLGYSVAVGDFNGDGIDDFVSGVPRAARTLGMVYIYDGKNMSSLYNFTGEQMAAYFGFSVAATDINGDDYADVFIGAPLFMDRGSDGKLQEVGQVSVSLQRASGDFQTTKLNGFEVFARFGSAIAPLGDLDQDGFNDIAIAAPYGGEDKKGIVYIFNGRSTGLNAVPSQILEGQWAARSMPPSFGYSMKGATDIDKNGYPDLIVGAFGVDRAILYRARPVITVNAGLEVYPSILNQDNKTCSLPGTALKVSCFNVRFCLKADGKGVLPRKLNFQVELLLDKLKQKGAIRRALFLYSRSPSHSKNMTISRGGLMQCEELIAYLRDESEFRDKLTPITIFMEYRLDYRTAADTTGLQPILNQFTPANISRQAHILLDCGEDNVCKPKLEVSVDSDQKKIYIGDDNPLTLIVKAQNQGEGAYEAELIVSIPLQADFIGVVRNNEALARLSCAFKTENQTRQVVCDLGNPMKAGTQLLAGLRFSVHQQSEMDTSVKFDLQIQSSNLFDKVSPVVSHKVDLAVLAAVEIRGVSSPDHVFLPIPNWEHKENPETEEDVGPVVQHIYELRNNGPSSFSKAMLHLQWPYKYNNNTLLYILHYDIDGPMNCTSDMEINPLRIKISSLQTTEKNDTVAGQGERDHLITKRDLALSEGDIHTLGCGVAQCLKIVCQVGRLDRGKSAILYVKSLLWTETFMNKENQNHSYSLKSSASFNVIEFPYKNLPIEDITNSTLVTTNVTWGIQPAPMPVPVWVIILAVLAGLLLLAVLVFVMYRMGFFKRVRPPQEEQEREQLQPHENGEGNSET
T2 chain 2: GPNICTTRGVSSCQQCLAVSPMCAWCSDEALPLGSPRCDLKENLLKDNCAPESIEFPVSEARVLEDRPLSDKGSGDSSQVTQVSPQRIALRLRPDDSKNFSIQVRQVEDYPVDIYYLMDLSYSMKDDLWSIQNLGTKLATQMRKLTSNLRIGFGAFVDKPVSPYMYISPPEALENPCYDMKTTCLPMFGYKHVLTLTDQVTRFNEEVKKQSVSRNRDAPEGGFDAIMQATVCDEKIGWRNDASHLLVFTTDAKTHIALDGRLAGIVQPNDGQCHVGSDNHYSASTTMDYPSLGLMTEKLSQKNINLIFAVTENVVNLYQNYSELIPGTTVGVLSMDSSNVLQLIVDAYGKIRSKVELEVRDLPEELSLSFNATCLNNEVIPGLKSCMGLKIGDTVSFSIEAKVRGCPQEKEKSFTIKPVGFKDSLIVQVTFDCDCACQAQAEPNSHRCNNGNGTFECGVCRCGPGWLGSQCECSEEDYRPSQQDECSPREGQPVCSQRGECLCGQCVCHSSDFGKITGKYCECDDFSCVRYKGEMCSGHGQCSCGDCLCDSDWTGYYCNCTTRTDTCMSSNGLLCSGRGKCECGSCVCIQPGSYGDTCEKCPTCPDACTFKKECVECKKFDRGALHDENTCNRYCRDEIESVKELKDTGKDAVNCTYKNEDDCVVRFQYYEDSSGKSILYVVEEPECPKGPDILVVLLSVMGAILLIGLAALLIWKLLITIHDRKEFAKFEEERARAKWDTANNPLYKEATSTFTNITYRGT

Molecule: Ac-DEVD-pNA
kcat [1]: 2.4 s⁻¹
Km [1]: 11 µM

Ki ([2]; read-out: Ki (nM ± s.d.), corrected Ki, modified Cheng-Prusoff equation, 125I-c(RGDyK) tracer): 1.62 ± 0.491 nM
Molecule: Cypate-c(RGDfK) [LS167]

decrease in the binding affinity ([2]; non-RGD peptide control): > 100 fold
Molecule: cypate-octreotate

Molecule: Ac-DEVD-AMC
kcat [1]: 0.75 s⁻¹
Km [1]: 9.7 µM

Molecule: Z-Asp(Ome)-Glu(Ome)-Val-Asp(OMe)-FMK
effect of caspase-3 inhibitor on LS422 fluorescence activation [3]: inability to activate the LS422 fluorescence

Kd [4]: 0.4 nM
B1: 125I-c(RGDyK) (peptide)
peptide: cyclo(RGD[dY]K)
modifications: also: 125I label, site not given here

Ki [5]: 1.62 nM
B2: LS167 (Cypate-c(RGDfK)) (peptide)
peptide: cyclo(RGD[dF]K)
modifications: also: cypate label, position not given here
